Assay results: paper PMC8696196 (RSC Advances, 2021)
Where two headings read alike, the source gives them in different places.

Assays:
[1] = biological target: N5 (H12N5) neuraminidase (Influenza A virus, UniProt A1ILL9); test: biochemical
[2] = biological target: N2 (H3N2) neuraminidase (Influenza A virus, UniProt Q8AZ87); test: biochemical
[3] = test system: H1N1 (A/Puerto Rico/8/34); test: microbe, parasite or virus in culture; format: cell-based, influenza A virus; conditions: read-out: EC50 H1N1
[4] = test system: H3N2 (A/Moscow/10/99); test: microbe, parasite or virus in culture; format: cell-based, influenza A virus; conditions: read-out: EC50 H3N2
[5] = in vitro; conditions: dog

With `CCC(CC)O[C@@H]1C=C(C(=O)O)C[C@H](n2cc(-c3ccc(-c4ccccc4)cc3)nn2)[C@H]1NC(C)=O` [Compound 1a, (3R,4R,5S)-4-Acetamido-5-[4-(1,1′-biphenyl-4-yl)-1H-1,2,3-triazol-1-yl]-3-(pentan-3-yloxy)cyclohex-1-ene-1-carboxylic acid] the IC50 [1] was > 100000 nM and the IC50 [2] was > 100 µM.

In the case of `CCC(CC)O[C@@H]1C=C(C(=O)O)C[C@H](n2cc(-c3ccc(Oc4ccccc4)cc3)nn2)[C@H]1NC(C)=O` [Compound 1b, (3R,4R,5S)-4-Acetamido-3-(pentan-3-yloxy)-5-[4-(4-phenoxyphenyl)-1H-1,2,3-triazol-1-yl]cyclohex-1-ene-1-carboxylic acid], the IC50 [1] is reported as > 100000 nM and the IC50 [2] is reported as > 100 µM.

With `CCC(CC)O[C@@H]1C=C(C(=O)O)C[C@H](n2cc(COc3ccc4ccccc4c3)nn2)[C@H]1NC(C)=O` [Compound 1c, (3R,4R,5S)-4-Acetamido-5-[4-(2-naphthyloxy)methyl-1H-1,2,3-triazol-1-yl]-3-(pentan-3-yloxy)cyclohex-1-ene-1-carboxylic acid] the IC50 [1] was 1660 ± 250 nM and the IC50 [2] was 3.8 ± 0.65 µM.

`CCC(CC)O[C@@H]1C=C(C(=O)O)C[C@H](n2cc(-c3ccc(C)cc3)nn2)[C@H]1NC(C)=O` [Compound 1d, (3R,4R,5S)-4-Acetamido-5-[4-(4-methylphenyl)-1H-1,2,3-triazol-1-yl]-3-(pentan-3-yloxy)cyclohex-1-ene-1-carboxylic acid] gave an IC50 [1] of 2850 ± 1280 nM and an IC50 [2] of 4.41 ± 1.11 µM.

Compound `CCC(CC)O[C@@H]1C=C(C(=O)O)C[C@H](n2cc(-c3ccccc3)nn2)[C@H]1NC(C)=O` [Compound 1e, (3R,4R,5S)-4-Acetamido-3-(pentan-3-yloxy)-5-(4-phenyl-1H-1,2,3-triazol-1-yl)cyclohex-1-ene-1-carboxylic acid] has an IC50 [1] of 12900 ± 1570 nM.

Compound `CCC(CC)O[C@@H]1C=C(C(=O)O)C[C@H](n2cc(-c3ccc(C(=O)O)cc3)nn2)[C@H]1NC(C)=O` [Compound 1f, (3R,4R,5S)-4-Acetamido-5-[4-(4-carboxyphenyl)-1H-1,2,3-triazol-1-yl]-3-(pentan-3-yloxy)cyclohex-1-ene-1-carboxylic acid] has an IC50 [1] of 8140 ± 1120 nM.

For `CCC(CC)O[C@@H]1C=C(C(=O)O)C[C@H](n2cc(-c3cccc(C(=O)O)c3)nn2)[C@H]1NC(C)=O` [Compound 1g, (3R,4R,5S)-4-Acetamido-5-[4-(3-carboxyphenyl)-1H-1,2,3-triazol-1-yl]-3-(pentan-3-yloxy)cyclohex-1-ene-1-carboxylic acid], the IC50 [1] was 29500 ± 8000 nM.

Work on `CCC(CC)O[C@@H]1C=C(C(=O)O)C[C@H](n2cc(-c3ccccc3C(=O)O)nn2)[C@H]1NC(C)=O` [Compound 1h, (3R,4R,5S)-4-Acetamido-5-[4-(2-carboxyphenyl)-1H-1,2,3-triazol-1-yl]-3-(pentan-3-yloxy)cyclohex-1-ene-1-carboxylic acid] yielded an IC50 [1] of 61200 ± 23700 nM.

For `CCC(CC)O[C@@H]1C=C(C(=O)O)C[C@H](n2cc(-c3ccc(N)cc3)nn2)[C@H]1NC(C)=O` [Compound 1i, (3R,4R,5S)-4-Acetamido-5-[4-(4-aminophenyl)-1H-1,2,3-triazol-1-yl]-3-(pentan-3-yloxy)cyclohex-1-ene-1-carboxylic acid], the IC50 [1] was > 100000 nM.

Work on `CCC(CC)O[C@@H]1C=C(C(=O)O)C[C@H](n2cc(-c3cccc(N)c3)nn2)[C@H]1NC(C)=O` [Compound 1j, (3R,4R,5S)-4-Acetamido-5-[4-(3-aminophenyl)-1H-1,2,3-triazol-1-yl]-3-(pentan-3-yloxy)cyclohex-1-ene-1-carboxylic acid] yielded an IC50 [1] of 3600 ± 820 nM.

In the case of `CCC(CC)O[C@@H]1C=C(C(=O)O)C[C@H](n2cc(-c3ccccc3N)nn2)[C@H]1NC(C)=O` [Compound 1k, (3R,4R,5S)-4-Acetamido-5-[4-(2-aminophenyl)-1H-1,2,3-triazol-1-yl]-3-(pentan-3-yloxy)cyclohex-1-ene-1-carboxylic acid], the IC50 [1] is reported as 520 ± 130 nM.

Work on `CCC(CC)O[C@@H]1C=C(C(=O)O)C[C@H](n2cc(-c3ccc(N(C)C)cc3)nn2)[C@H]1NC(C)=O` [Compound 1l, (3R,4R,5S)-4-Acetamido-5-[4-(4-dimethylaminophenyl)-1H-1,2,3-triazol-1-yl]-3-(pentan-3-yloxy)cyclohex-1-ene-1-carboxylic acid] yielded an IC50 [1] of 740 ± 180 nM.

With `CCC(CC)O[C@@H]1C=C(C(=O)O)C[C@H](n2cc(-c3ccc(N(CC)CC)cc3)nn2)[C@H]1NC(C)=O` [Compound 1m, (3R,4R,5S)-4-Acetamido-5-[4-(4-diethylaminophenyl)-1H-1,2,3-triazol-1-yl]-3-(pentan-3-yloxy)cyclohex-1-ene-1-carboxylic acid] the IC50 [1] was > 100000 nM.

Work on `CCC(CC)O[C@@H]1C=C(C(=O)O)C[C@H](n2cc(COc3ccc(C[C@H](N)C(=O)O)cc3)nn2)[C@H]1NC(C)=O` [Compound 1n, (3R,4R,5S)-4-Acetamido-5-{4-{[4-((S)-2-amino-2-carboxyethyl)phenoxy]methyl}-1H-1,2,3-triazol-1-yl}-3-(pentan-3-yloxy)cyclohex-1-ene-1-carboxylic acid] yielded an IC50 [1] of 6950 ± 470 nM.

For `CCC(CC)O[C@@H]1C=C(C(=O)O)C[C@H](n2nncc2-c2ccccc2)[C@H]1NC(C)=O` [Compound 2e, (3R,4R,5S)-4-Acetamido-3-(pentan-3-yloxy)-5-(5-phenyl-1H-1,2,3-triazol-1-yl)cyclohex-1-ene-1-carboxylic acid], the IC50 [1] was 5340 ± 450 nM.

For `CCC(CC)O[C@@H]1C=C(C(=O)O)C[C@H](n2nncc2-c2ccc(C(=O)O)cc2)[C@H]1NC(C)=O` [Compound 2f, (3R,4R,5S)-4-Acetamido-5-[5-(4-carboxyphenyl)-1H-1,2,3-triazol-1-yl]-3-(pentan-3-yloxy)cyclohex-1-ene-1-carboxylic acid], the IC50 [1] was 3920 ± 690 nM.

`CCC(CC)O[C@@H]1C=C(C(=O)O)C[C@H](n2nncc2-c2cccc(C(=O)O)c2)[C@H]1NC(C)=O` [Compound 2g, (3R,4R,5S)-4-Acetamido-5-[5-(3-carboxyphenyl)-1H-1,2,3-triazol-1-yl]-3-(pentan-3-yloxy)cyclohex-1-ene-1-carboxylic acid] gave an IC50 [1] of 2040 ± 990 nM.

`CCC(CC)O[C@@H]1C=C(C(=O)O)C[C@H](n2nncc2-c2ccccc2C(=O)O)[C@H]1NC(C)=O` [Compound 2h, (3R,4R,5S)-4-Acetamido-5-[5-(2-carboxyphenyl)-1H-1,2,3-triazol-1-yl]-3-(pentan-3-yloxy)cyclohex-1-ene-1-carboxylic acid] gave an IC50 [1] of 570 ± 130 nM.

For `CCC(CC)O[C@@H]1C=C(C(=O)O)C[C@H](n2nncc2-c2ccc(N)cc2)[C@H]1NC(C)=O` [Compound 2i, (3R,4R,5S)-4-Acetamido-5-[5-(4-aminophenyl)-1H-1,2,3-triazol-1-yl]-3-(pentan-3-yloxy)cyclohex-1-ene-1-carboxylic acid], the IC50 [1] was 250 ± 44 nM.

`CCC(CC)O[C@@H]1C=C(C(=O)O)C[C@H](n2nncc2-c2cccc(N)c2)[C@H]1NC(C)=O` [Compound 2j, (3R,4R,5S)-4-Acetamido-5-[5-(3-aminophenyl)-1H-1,2,3-triazol-1-yl]-3-(pentan-3-yloxy)cyclohex-1-ene-1-carboxylic acid] showed an IC50 [1] of 45 ± 16 nM, an EC50 ([3]; Influenza A virus, H1N1, MDCK, 72 h) of 11.5 ± 2.69 µM and an EC50 ([4]; Influenza A virus, H3N2, MDCK, 72 h) of 7.65 ± 0.7 µM. For the same compound, the CC50 [5] was > 500 µM.

For `CCC(CC)O[C@@H]1C=C(C(=O)O)C[C@H](n2nncc2-c2ccccc2N)[C@H]1NC(C)=O` [Compound 2k, (3R,4R,5S)-4-Acetamido-5-[5-(2-aminophenyl)-1H-1,2,3-triazol-1-yl]-3-(pentan-3-yloxy)cyclohex-1-ene-1-carboxylic acid], the IC50 [1] was 410 ± 47 nM.

Compound `CCC(CC)O[C@@H]1C=C(C(=O)O)C[C@H](n2nncc2-c2ccc(N(C)C)cc2)[C@H]1NC(C)=O` [Compound 2l, (3R,4R,5S)-4-Acetamido-5-[5-(4-dimethylaminophenyl)-1H-1,2,3-triazol-1-yl]-3-(pentan-3-yloxy)cyclohex-1-ene-1-carboxylic acid] has an IC50 [1] of 140 ± 16 nM.

In the case of `CCC(CC)O[C@@H]1C=C(C(=O)O)C[C@H](n2nncc2-c2ccc(N(CC)CC)cc2)[C@H]1NC(C)=O` [Compound 2m, (3R,4R,5S)-4-Acetamido-5-[5-(4-diethylaminophenyl)-1H-1,2,3-triazol-1-yl]-3-(pentan-3-yloxy)cyclohex-1-ene-1-carboxylic acid], the IC50 [1] is reported as > 100000 nM.

With `CCC(CC)O[C@@H]1C=C(C(=O)O)C[C@H](n2nncc2COc2ccc(C[C@H](N)C(=O)O)cc2)[C@H]1NC(C)=O` [Compound 2n, (3R,4R,5S)-4-Acetamido-5-{5-{[4-((S)-2-amino-2-carboxyethyl)phenoxy]methyl}-1H-1,2,3-triazol-1-yl}-3-(pentan-3-yloxy)cyclohex-1-ene-1-carboxylic acid] the IC50 [1] was 2430 ± 330 nM.

`CCC(CC)O[C@@H]1C=C(C(=O)O)C[C@H](N)[C@H]1NC(C)=O` [OSC, oseltamivir carboxylate, reference compound] showed an IC50 [1] of 0.94 ± 0.3 nM, an EC50 [3] of 0.25 ± 0.081 µM and an EC50 [4] of 0.43 ± 0.08 µM. The CC50 [5] was > 500 µM.
